Results published in patent US8629276B2, “Inhibitors of human immunodeficiency virus replication” (priority 2012, dated 2014).

system: recombinant NL-Rluc virus; assay: Inhibition of HIV replication (NL-RLuc virus, luciferase readout in MT-2 cells); format: cell-based; conditions: Human immunodeficiency virus 1, MT2, 120 h

Going from `CC(C)c1nc2c(c(-c3ccc(F)cc3)c1C(OC(C)(C)C)C(=O)O)CN(C(=O)Cc1ccc(OCc3ccccc3)cc1)CC2(C)C` (centres unmarked) [Example 5, 2-(6-(2-(4-(Benzyloxy)phenyl)acetyl)-4-(4-fluorophenyl)-2-isopropyl-8,8-dimethyl-5,6,7,8-tetrahydro-1,6-naphthyridin-3-yl)-2-tert-butoxyacetic acid] to `CC(C)c1nc2c(c(-c3ccc(F)cc3)c1C(OC(C)(C)C)C(=O)O)CN(C(=O)Cc1ccc(F)cc1)CC2(C)C` (centres unmarked) [Example 6, 2-tert-Butoxy-2-(4-(4-fluorophenyl)-6-(2-(4-fluorophenyl)acetyl)-2-isopropyl-8,8-dimethyl-5,6,7,8-tetrahydro-1,6-naphthyridin-3-yl)acetic acid], the EC50 falls from 5130 nM to 185 nM (28-fold).

`Cc1ccc(CCCN2CCc3nc(C)c([C@H](OC(C)(C)C)C(=O)O)c(-c4cc(F)c5c(c4C)CCCO5)c3C2)cc1` [Example 54, (2S)-2-(tert-Butoxy)-2-(4-(8-fluoro-5-methylchroman-6-yl)-2-methyl-6-(3-(p-tolyl)propyl)-5,6,7,8-tetrahydro-1,6-naphthyridin-3-yl)acetic acid] and `Cc1cccc(CCCN2CCc3nc(C)c([C@H](OC(C)(C)C)C(=O)O)c(-c4cc(F)c5c(c4C)CCCO5)c3C2)c1` (atropisomer, axis not shown) [Example 47, (2S)-2-(tert-Butoxy)-2-((R)-4-(8-fluoro-5-methylchroman-6-yl)-2-methyl-6-(3-(m-tolyl)propyl)-5,6,7,8-tetrahydro-1,6-naphthyridin-3-yl)acetic acid] are the same in EC50: 2 nM for the first, 2 nM for the second.

First: CC(C)c1nc2c(c(-c3ccc(F)cc3)c1C(OC(C)(C)C)C(=O)O)CN(C(=O)C(=O)c1c[nH]c3ccccc13)CC2(C)C (centres unmarked) [Example 11, 2-(6-(2-(1H-Indol-3-yl)-2-oxoacetyl)-4-(4-fluorophenyl)-2-isopropyl-8,8-dimethyl-5,6,7,8-tetrahydro-1,6-naphthyridin-3-yl)-2-tert-butoxyacetic acid]
Second: CC(C)c1nc2c(c(-c3ccc(F)cc3)c1C(OC(C)(C)C)C(=O)O)CN(C(=O)c1ccccc1)CC2(C)C (centres unmarked) [Example 3, 2-(6-Benzoyl-4-(4-fluorophenyl)-2-isopropyl-8,8-dimethyl-5,6,7,8-tetrahydro-1,6-naphthyridin-3-yl)-2-tert-butoxyacetic acid]
The EC50 of the first is 1.6-fold lower: 4120 nM for the first, 6790 nM for the second.

Compared with `Cc1ccc(-c2c3c(nc(C)c2[C@H](OC(C)(C)C)C(=O)O)CCN(CCc2c[nH]c4ccccc24)C3)cc1` [Example 46, (S)-2-(6-(2-(1H-Indol-3-yl)ethyl)-2-methyl-4-(p-tolyl)-5,6,7,8-tetrahydro-1,6-naphthyridin-3-yl)-2-(tert-butoxy)acetic acid], `Cc1ccc(-c2c3c(nc(C)c2C(OC(C)(C)C)C(=O)O)CCN(CCCc2ccccc2)C3)cc1` (centres unmarked) [Example 29, 2-(tert-Butoxy)-2-(2-methyl-6-(3-phenylpropyl)-4-(p-tolyl)-5,6,7,8-tetrahydro-1,6-naphthyridin-3-yl)acetic acid] is 14-fold lower in EC50: 139 nM for the first, 10 nM for the second. The second is the more potent here.

`Cc1ccc(-c2c3c(nc(C)c2C(OC(C)(C)C)C(=O)O)CCN(C(=O)CCc2ccccc2)C3)cc1` (centres unmarked) [Example 28, 2-(tert-Butoxy)-2-(2-methyl-6-(3-phenylpropanoyl)-4-(p-tolyl)-5,6,7,8-tetrahydro-1,6-naphthyridin-3-yl)acetic acid] and `Cc1ccc(-c2c3c(nc(C)c2C(OC(C)(C)C)C(=O)O)CCN(C(=O)NCc2ccccc2)C3)cc1` (centres unmarked) [Example 27, 2-(6-(Benzylcarbamoyl)-2-methyl-4-(p-tolyl)-5,6,7,8-tetrahydro-1,6-naphthyridin-3-yl)-2-(tert-butoxy)acetic acid] are within 1.5-fold of each other in EC50: 335 nM for the first, 499 nM for the second.

Going from `Cc1ccc(-c2c3c(nc(C)c2[C@H](OC(C)(C)C)C(=O)O)CCN(Cc2ccc(Cl)cc2)C3)cc1` [Example 41, (S)-2-(tert-Butoxy)-2-(6-(4-chlorobenzyl)-2-methyl-4-(p-tolyl)-5,6,7,8-tetrahydro-1,6-naphthyridin-3-yl)acetic acid] to `Cc1ccc(-c2c3c(nc(C)c2[C@H](OC(C)(C)C)C(=O)O)CCN(CCCc2ccc(Cl)cc2)C3)cc1` [Example 34, (S)-2-(tert-Butoxy)-2-(6-(3-(4-chlorophenyl)propyl)-2-methyl-4-(p-tolyl)-5,6,7,8-tetrahydro-1,6-naphthyridin-3-yl)acetic acid], the EC50 falls from 150 nM to 12 nM (12-fold).

Going from `Cc1cc(CCCN2CCc3nc(C)c([C@H](OC(C)(C)C)C(=O)O)c(-c4cc(F)c5c(c4C)CCCO5)c3C2)ccc1F` (atropisomer, axis not shown) [Example 52, (2S)-2-(tert-Butoxy)-2-(6-(3-(4-fluoro-3-methylphenyl)propyl)-(R)-4-(8-fluoro-5-methylchroman-6-yl)-2-methyl-5,6,7,8-tetrahydro-1,6-naphthyridin-3-yl)acetic acid] to `Cc1nc2c(c(-c3cc(F)c4c(c3C)CCCO4)c1[C@H](OC(C)(C)C)C(=O)O)CN(CCCc1cccc(F)c1)CC2` (atropisomer, axis not shown) [Example 49, (S)-2-(tert-Butoxy)-2-((R)-4-(8-fluoro-5-methylchroman-6-yl)-6-(3-(3-fluorophenyl)propyl)-2-methyl-5,6,7,8-tetrahydro-1,6-naphthyridin-3-yl)acetic acid], the EC50 rises from 2 nM to 4 nM (2-fold). The first is the more potent here.

Going from `Cc1ccc(-c2c3c(nc(C)c2C(OC(C)(C)C)C(=O)O)CCNC3)cc1` (centres unmarked) [Example 20, 2-(tert-Butoxy)-2-(2-methyl-4-(p-tolyl)-5,6,7,8-tetrahydro-1,6-naphthyridin-3-yl)acetic acid] to `CC(=O)N1CCc2nc(C)c(C(OC(C)(C)C)C(=O)O)c(-c3ccc(C)cc3)c2C1` (centres unmarked) [Example 25, 2-(6-Acetyl-2-methyl-4-(p-tolyl)-5,6,7,8-tetrahydro-1,6-naphthyridin-3-yl)-2-(tert-butoxy)acetic acid], the EC50 falls from 13500 nM to 1920 nM (7-fold).

`Cc1ccc(-c2c3c(nc(C)c2C(OC(C)(C)C)C(=O)O)CCN(c2ccc(-c4ccccc4)cc2)C3)cc1` (centres unmarked) [Example 30, 2-(6-([1,1′-Biphenyl]-4-yl)-2-methyl-4-(p-tolyl)-5,6,7,8-tetrahydro-1,6-naphthyridin-3-yl)-2-(tert-butoxy)acetic acid] and `Cc1ccc(-c2c3c(nc(C)c2C(OC(C)(C)C)C(=O)O)CCN(c2ccccc2)C3)cc1` (centres unmarked) [Example 31, 2-(tert-Butoxy)-2-(2-methyl-6-phenyl-4-(p-tolyl)-5,6,7,8-tetrahydro-1,6-naphthyridin-3-yl)acetic acid] are within 1.5-fold of each other in EC50: 323 nM for the first, 466 nM for the second.

Going from `Cc1ccccc1CCCN1CCc2nc(C)c([C@H](OC(C)(C)C)C(=O)O)c(-c3cc(F)c4c(c3C)CCCO4)c2C1` (atropisomer, axis not shown) [Example 48, (2S)-2-(tert-Butoxy)-2-((R)-4-(8-fluoro-5-methylchroman-6-yl)-2-methyl-6-(3-(o-tolyl)propyl)-5,6,7,8-tetrahydro-1,6-naphthyridin-3-yl)acetic acid] to `Cc1nc2c(c(-c3cc(F)c4c(c3C)CCCO4)c1[C@H](OC(C)(C)C)C(=O)O)CN(CCCc1ccccc1F)CC2` (atropisomer, axis not shown) [Example 55, (2S)-2-(tert-Butoxy)-2-((R)-4-(8-fluoro-5-methylchroman-6-yl)-6-(3-(2-fluorophenyl)propyl)-2-methyl-5,6,7,8-tetrahydro-1,6-naphthyridin-3-yl)acetic acid], the EC50 falls from 2 nM to 1 nM (2-fold).

First: Cc1ccc(-c2c3c(nc(C)c2C(OC(C)(C)C)C(=O)O)CCN(C(=O)OCc2ccccc2)C3)cc1 (centres unmarked) [Example 19, 2-(6-((Benzyloxy)carbonyl)-2-methyl-4-(p-tolyl)-5,6,7,8-tetrahydro-1,6-naphthyridin-3-yl)-2-(tert-butoxy)acetic acid]
Second: COC(=O)N1CCc2nc(C)c(C(OC(C)(C)C)C(=O)O)c(-c3ccc(C)cc3)c2C1 (centres unmarked) [Example 26, 2-(tert-Butoxy)-2-(6-(methoxycarbonyl)-2-methyl-4-(p-tolyl)-5,6,7,8-tetrahydro-1,6-naphthyridin-3-yl)acetic acid]
The EC50 of the first is 7.3-fold lower: 226 nM for the first, 1640 nM for the second. The first is the more potent here.

Going from `CC(=O)N1Cc2c(nc(C(C)C)c(C(OC(C)(C)C)C(=O)O)c2-c2ccc(F)cc2)C(C)(C)C1` (centres unmarked) [Example 2, 2-(6-Acetyl-4-(4-fluorophenyl)-2-isopropyl-8,8-dimethyl-5,6,7,8-tetrahydro-1,6-naphthyridin-3-yl)-2-tert-butoxyacetic acid] to `CC(C)c1nc2c(c(-c3ccc(F)cc3)c1C(OC(C)(C)C)C(=O)O)CN(c1ccc(-c3ccccc3)cc1)CC2(C)C` (centres unmarked) [Example 18, 2-(6-([1,1′-Biphenyl]-4-yl)-4-(4-fluorophenyl)-2-isopropyl-8,8-dimethyl-5,6,7,8-tetrahydro-1,6-naphthyridin-3-yl)-2-(tert-butoxy)acetic acid], the EC50 falls from 10000 nM to 2020 nM (5-fold).

Compared with `Cc1ccc(-c2c3c(nc(C)c2[C@H](OC(C)(C)C)C(=O)O)C(C)(C)CN(CCCc2ccccc2)C3)cc1` [Example 43, (S)-2-(tert-Butoxy)-2-(2,8,8-trimethyl-6-(3-phenylpropyl)-4-(p-tolyl)-5,6,7,8-tetrahydro-1,6-naphthyridin-3-yl)acetic acid], `Cc1nc2c(c(-c3cc(F)c4c(c3C)CCCO4)c1[C@H](OC(C)(C)C)C(=O)O)CN(C(=O)OCc1ccccc1)CC2(C)C` [Example 35, (2S)-2-(6-((Benzyloxy)carbonyl)-4-(8-fluoro-5-methylchroman-6-yl)-2,8,8-trimethyl-5,6,7,8-tetrahydro-1,6-naphthyridin-3-yl)-2-(tert-butoxy)acetic acid] is 9.7-fold lower in EC50: 29 nM for the first, 3 nM for the second. The second is the more potent here.
